Measurements: patent US8426433B2, priority 2007, dated 2013)
Like-named read-outs stand apart in the source and are kept apart here.

Tests used:
[1] = test system: endogenous thrombin potential in normal donor plasma (PPP); assay: Thrombin generation test (endogenous thrombin potential) in normal donor plasma; type: biochemical; details: read-out: IC50 (50% reduction in endogenous thrombin potential)
Text: This method was described in detail in many papers (Hemker H C, Giesen P L, Ramjee M, Wagenvoord R, Beguin S. The thrombogram: monitoring thrombin generation in platelet-rich plasma. Thromb. Haemost., 2000; 83(4): 589-591; Hemker H C, AlDieri R, Beguin S. Thrombin generation assays: accruing clinical relevance. Curr. Opin. Hematol., 2004, 11(3):170-175; Hemker H C, Giesen P, AlDieri R, Regnault V, de Smed E, Wagenvoord R, Lecompte T, Beguin S. The calibrated automated thrombogram (CAT): a universal routine test for hyper- and hypocoagulability. Pathophysiol. Haemost. Thromb., 2002, 32(5-6):249-253). The test is used to measure the kinetics and total quantity of active thrombin generated in a plasma sample over a specified time at a standard clotting activation level in the sample. These applicants' method is suitable for measuring thrombin concentration using a slow-action fluorogenic substrate (BOC-Ile-Gly-Arg-AMC), which gives a highly fluorescent product, 7-amino-4-methylcoumarin (AMC), when broken d own by thrombin. The use of a fluorogenic, rather than chromogenic, substrate is dictated by the fact that the fluorescence level in the sample is virtually unaffected by the solid fibrin clot formed in the metering cell, but this is a qualification that restricts the application of a chromogenic substrate (Hemker H C, Giesen P, AlDieri R, Regnault V, de Smed E, Wagenvoord R, Lecompte T, Beguin S. The calibrated automated thrombogram (CAT): a universal routine test for hyper- and hypocoagulability. Pathophysiol. Haemost. Thromb., 2002, 32(5-6):249-253). On the other hand, it is common knowledge that the bulk of thrombin (about 95%) in the sample is generated after the first clot has already formed (Hemker H C, AlDieri R, Beguin S. Thrombin generation assays: accruing clinical relevance. Curr. Opin. Hematol., 2004, 11(3):170-175).
The kinetics of thrombin generation and ultimately loss in plasma after clotting activation is shown in FIG. 1, which illustrates the relationship between concentration of active thrombin in a plasma sample and time. The area under the thrombin generation time curve (in this invention, from 0 to 50 minutes of incubation) is called endogenous thrombin potential (ETP). The curve is further characterized by tmax, the time when thrombin in the sample reaches maximum concentration, Amax, the maximum thrombin concentration in the system, and tlag, the time before clotting commencement, which is conventionally the time when thrombin reaches a concentration of 5 nM.
Obviously, important clotting information is contained in the shape of thrombin concentration to time curves, as well as the integral ETP level. In particular, against the background of low factor and clotting inhibitor concentration, thrombin concentration maximums can be lower and also broader, although the total ETP might not change at all. The presence of additional thrombin inhibitors in plasma must reduce ETP and maximum attainable thrombin concentration, and increase the clotting lag and the time required for thrombin to achieve maximum concentration.
Measurements were taken as follows: 90 microliters of normal donor plasma (PPP), 0 to 20 microliters of the test substance solution, and 20 to 0 microliters of buffering solution (20 mM of HEPES, 140 mM of NaCal, pH 7.5) were deposited in the holes of a 96 hole board so that the total volume of added substance and buffer is always 20 microliters. Whereupon 20 microliters of a fluorogenic substrate solution (at 5 mM initial concentration) was added to each of the board holes, and plasma was heated for 3 to 5 minutes at 37° C. Next, 25 microliters of a clotting activator solution was added simultaneously (using a multichannel pipette) to all the holes. A thromboplastin solution prepared from a standard thromboplastin reagent diluted to 1/250th of its original concentration by the same buffer further containing 80 mM of CaCl2 to measure the prothrombin time (PT) (RENAM, Russia) was used as activator. […]

[2] = Acute toxicity, LD50; details: mouse, in vivo, mice
[3] = test system: clot growth in platelet-free plasma; assay: Clot growth rate in space (light scattering) in platelet-free plasma; type: biochemical; details: 1 mcM of the compound in normal plasma versus plasma control, FIG. 9-11
Text: The clot growth rate in space describes the dynamics of clotting, which is a process that develops over time and across space. This method measures light scattering to determine the size of the clot at different periods of time once clotting has begun. Clotting is activated in the system by an activator precisely localized in space without stirring. The activator was alternatively either a simple glass plate having a ground edge to cause contact activation on the internal path or fibroblast-coated polyethylene terephthalate films provided on the surface with a tissue factor to activate clotting on the external path. […]
Light scattering profiles corresponding to different time moments from the start of the experiment were obtained by processing the series of recorded images. […] The clot size in each frame was determined as the distance from the activator to the clot edge assumed to be the point where light scattering was half the maximum value. […]
The last output processing stage was calculating the clot growth rate on the basis of the light scattering profiles obtained. The clot size was assessed at each point of time as the distance of a respective light scattering profile from the activator (at half-point of the maximum profile height). […] The quasi-stationary growth rate of the clot was calculated from the inclination angle of the linear portion of the curve.

[4] = test system: endogenous thrombin potential in diluted donor platelet-free plasma; assay: ETP in plasma diluted with NaCl 0.9% plasma-substituting solution containing inhibitor; type: biochemical; details: 0.25-0.5 mcM in NaCl 0.9% solution; plasma diluted at a ratio of 1.5 to 4, FIG. 12
Protocol: Donor blood prepared on a 3.8% sodium citrate at a 9:1 ratio of blood to citrate (20 ml) was centrifuged for 15 minutes at 1,300 g. Some of the platelet-poor plasma (PPP) was centrifuged for another 10 minutes at 10,000 g to obtain a platelet-free plasma (PFP). The PFP thus produced was then used for measuring the endogenous thrombin potential.
PFP was diluted at a ratio of 1.5, 2, 3 and 4 with either transfusion-grade physiological saline (NaCl 0.9%) or with the same solution containing additionally a thrombin inhibitor HC-025s-IOC (at concentrations of 0.25, 0.5 or 1 mcM). For constant concentration of Ca^+2 to be maintained through the tests after recalcification, sodium citrate concentration was maintained constant in all plasma dilutions to be identical to the concentration in initial undiluted plasma, for which purpose the initial plasma-substituting solutions used to dilute the plasma were first mixed with 3.8% sodium citrate similarly with initial blood at a 9:1 solution to citrate ratio.
The plasma sample used in the above-described ETP measurement method was always diluted at a 1.5 ratio throughout. An opportunity must be provided to measure ETP in undiluted plasma in experiments to dilute plasmas with PSS. […] Endogenous thrombin potential was measured for each of the diluted plasmas in the presence of different concentrations of HC-025s-IOC.

[5] = Argatroban after clinical testing; cited from earlier work

| SMILES | IC50 [1] | further results |
| --- | --- | --- |
| Cc1cc(OCCC[n+]2ccsc2N)cc(OS(=O)(=O)c2ccccc2F)c1 [HC_030s_IOC] | ~8.6 µM |  |
| Cc1cc(OCCSC(=N)N)cc(OS(=O)(=O)c2ccccc2S(C)(=O)=O)c1 [HC_040s_IOC] | 0.8 µM |  |
| Cc1cc(OCC[n+]2ccc(N)cc2)cc(OS(=O)(=O)c2ccc(Cl)cc2)c1 [HC_039s_IOC] | 0.15 µM |  |
| Cc1cc(OCCC[n+]2ccc(N)cc2)cc(OS(=O)(=O)c2ccccc2F)c1 [HC_029s_IOC, 4-amino-1-(3-(3-methyl-5-(2-fluorobenzenesulfonyloxy)phenoxy)propyl)-pyridinium iodide] | 27 µM |  |
| Cc1cc(OCCC[n+]2ccc(N)cc2)cc(OS(=O)(=O)c2ccccc2)c1 [HC-016s-IOC, 4-amino-1-(3-(3-methyl-5-(benzenesulfonyloxy)phenoxy)propyl)-pyridinium iodide] | ~240 µM |  |
| CNc1ccc(S(=O)(=O)N(C)c2ccccc2)cc1NC(=O)CC[n+]1ccc(N)cc1.[Cl-] [HC_028s_IOC] | ~9 µM | LD50 ([2]; 0.9% NaCl + cremophor 20%): 257 ± 31 mg/kg |
| C/N=C(/N)CSCCCOc1cc(C)cc(OS(=O)(=O)c2ccccc2Cl)c1 [HC_033s_IOC] | 0.527 µM |  |
| Cc1cc(OCCC[n+]2ccc(N)cc2)cc(OS(=O)(=O)c2ccccc2Cl)c1 [HC-023s-IOC] | 40 µM |  |
| Cc1cc(OCC[n+]2ccc(N)cc2)cc(OS(=O)(=O)c2ccccc2)c1 [HC-019s-IOC, 4-amino-1-(2-(3-methyl-5-(benzenesulfonyloxy)phenoxy)ethyl)-pyridinium iodide] | 0.25 µM | LD50 ([2]; 0.9% NaCl + cremophor 20%): > 278 mg/kg |
| Cc1cc(OCCCn2ccsc2=N)cc(OS(=O)(=O)c2ccccc2)c1 | 24.8 µM | LD50 ([2]; 0.9% NaCl): > 199 mg/kg |
| Cc1cc(OCCSC(=N)N)cc(OS(=O)(=O)c2ccccc2)c1 [HC-020s-IOC, 2-(3-methyl-5-(benzenesulfonyloxy)phenoxy)ethyl-isothiouronium iodide] |  | LD50 ([2]; 0.9% NaCl + cremophor 20%): > 1110 mg/kg |
| Nc1cc[n+](CCOc2cccc(NS(=O)(=O)c3ccccc3)c2)cc1 [HC_041s_IOC] | 1.6 µM |  |
| Cc1cc(OCC[n+]2ccc(N)cc2)cc(OS(=O)(=O)c2ccccc2F)c1 [HC_037s_IOC] | ~0.1 µM |  |
| Cc1cc(OCC[n+]2ccsc2N)cc(OS(=O)(=O)c2ccccc2Cl)c1 [HC_045s_IOC] | 16 µM |  |
| Cc1ccc(S(=O)(=O)Oc2cc(C)cc(OCC[n+]3ccc(N)cc3)c2)cc1 [HC_038s_IOC] | ~4 µM |  |
| Cc1cc(OCC[n+]2ccc(N)cc2)cc(OS(=O)(=O)c2ccccc2S(C)(=O)=O)c1 [HC_036s_IOC] | 0.158 µM |  |
| Cc1cc(OCC[n+]2ccc(N)cc2)cc(OS(=O)(=O)c2ccccc2Cl)c1.[I-] [HC-025s-IOC, 4-amino-1-(2-(3-methyl-5-(2-chlorobenzenesulfonyloxy)phenoxy)ethyl)-pyridinium iodide] | 0.26 µM | Spatial clot growth dynamics (clot size versus time) [3]: inhibits clotting; ETP readings for different plasma dilutions [4]: closest thing to normal |
| Cc1cc(OCC[n+]2ccc(N)nc2)cc(OS(=O)(=O)c2ccccc2)c1 [HC_047s_IOC] | 2.5 µM |  |
| CC1CNc2c(cccc2S(=O)(=O)N[C@@H](CCCNC(=N)N)C(=O)N2CC[C@@H](C)C[C@@H]2C(=O)O)C1 (stereo partly drawn) [Argatroban] |  | LD50 [5]: 475 mg/kg |
| C/N=C(/N)SCCCOc1cc(C)cc(OS(=O)(=O)c2ccccc2Cl)c1 [HC_032s_IOC] | 25.2 µM |  |
| Cc1cc(OCCCSC(=N)N)cc(OS(=O)(=O)c2ccccc2)c1.I [HC-018s-IOC, 3-(3-methyl-5-(benzenesulfonyloxy)phenoxy)propyl-isothiouronium iodide] |  | LD50 ([2]; 0.9% NaCl + cremophor 20%): < 441 mg/kg |
| Cc1cc(OCCCSC(=N)N)cc(OS(=O)(=O)c2ccccc2F)c1 [HC_031s_IOC] | 1.24 µM |  |
